According to patent US20040147531A1, “Amidine derivatives for treating amyloidosis” (priority 2001, published 2004):

Legend:
Parameters in all cases: key: “+” = active; “−” = inactive; “pr” = promoting
Aβ40 = molecular target: T1, Aβ40 (Homo sapiens, UniProt P05067); test: mass spectroscopy (MS) assay, binding to Aβ; details: 200 μM test compound, 20 μM solubilized Aβ40, pH 7.4; ability to bind to Aβ
T1 construct: 200 μM of a test compound and 20 μM of solubilized Aβ40
Protocol: Test compounds were purchased from commercial sources or synthesized and screened by thioflavin T fluorescent assay (“ThT assay”). Alternatively, one could screen test compounds by circular dichroism (“CD”), electron microscopy (“EM”), or mass spectroscopy (“MS”) assays.
And in the mass spectroscopy (“MS”) assay, samples were prepared as aqueous solutions containing 20% ethanol, 200 μM of a test compound and 20 μM of solubilized Aβ40. The pH value of each sample was adjusted to 7.4 (±0.2) by addition of 0.1% aqueous sodium hydroxide. The solutions were then analyzed by electrospray ionization mass spectroscopy using a Waters ZQ 4000 mass spectrometer. Samples were introduced by direct infusion at a flow-rate of 25 μL/min within 2 hr. after sample preparation. The source temperature was kept at 70° C. and the cone voltage was 20 V for all the analysis. Data were processed using Masslynx 3.5 software.

Aβ (1-40) = molecular target: T2, Aβ (1-40) (Homo sapiens, UniProt P05067); test: thioflavin T fluorescent assay (ThT assay) for fibrillogenesis; assay type: biochemical; details: Aβ (1-40) 20 μM, 5 μM Thioflavin T, pH 7.40, 37° C.; inhibition of fibrillogenesis
T2 construct: Aβ peptide: Aβ (1-40) 95% purity (American Peptide Company, Inc, Sunnyvale, Calif. USA); purchased American Peptide Company, Inc, Sunnyvale, Calif; USA
Description: Test compounds were purchased from commercial sources or synthesized and screened by thioflavin T fluorescent assay (“ThT assay”). Alternatively, one could screen test compounds by circular dichroism (“CD”), electron microscopy (“EM”), or mass spectroscopy (“MS”) assays. The MS assay gives data on the ability of compounds to bind to an amyloid protein, whereas the ThT, EM, and CD assays give data on inhibition of fibrillogenesis. The thioflavin T fluorescent assay for fibrillogenesis is based on the principle that the fluorescent dye, thioflavin T, binds specifically to fibrillar, but not to unaggregate Aβ peptide (LeVine III, H., 1993, Protein Science 2:404-410). Upon binding, thioflavin T develops a characteristic fluorescence (Naiki, H., et al., 1996, Lab. Invest. 74: 374-383) which can be easily detected. The dye is believed to interact with the stacked cross-β pleated sheets, the common structural motif of all amyloid (LeVine III, H., 1995, Amyloid: Int. J. Exp. Clin Invest. 2:1.6). Thioflavin T is widely used to assay the effect of compounds on fibrillogenesis of Aβ peptide and other amyloid proteins (Bronfman, P. C., et al., 1995, Neuroscience Lett. 218:201-203). In this assay, test compounds are incubated with a solution of Aβ (1-40) (20 μM) or IAPP (10 μM) containing 5 μM Thioflavin T, in 0.02M Tris/0.02M acetate/0.15M NaCl/0.005% azide/pH 7.40 at 37° C. in sealed 384 well microplates. Readings (ex 430 nm/em 485 nm) are taken at various time intervals with a microplate fluorescence reader. An increase in fluorescence signifies the appearance of amyloid or intermediates in the production of amyloid, as illustrated in the Figures (in general, a compound which inhibits fibrillogenesis produces lower fluorescence in the assay because the fluorescence of ThT is greater when bound to fibrils). Protocol: Aβ peptide: Aβ (1-40) 95% purity (American Peptide Company, Inc, Sunnyvale, Calif. USA) is disaggregated in trifluoroacetic acid and filtered through a […] filter, (Whatman Anotop 25 plus, 0.02 μm, Catalogue no. 6809 4102) in hexafluoroisopropanol (HFIP). Solutions of Aβ (1-40) or IAPP at 600 μm in HFIP are stored at −80° C. Assay mixture: The mixture is prepared as two solutions which are combined upon addition to the 384 well microplate (Corning Costar cat. 3705). i) Solution A consists of test compounds in 0.02M Tris/0.02M acetate/0.15M NaCl/0.01% azide at pH 7.40 or buffer alone (control), ii) Solution B consists of Aβ (1-40) 40 μM or IAPP 20 μM, Thioflavin T […] in 0.02M Tris/0.02M acetate/0.15M NaCl at pH 7.40. This solution is prepared by drying the Aβ peptide under nitrogen and then resuspending this in 0.04M Tris base with 15 minutes sonication. An equal volume of 0.04M acetic acid containing 0.3 M NaCl is added and the solution is adjusted to 7.40±0.02. A small volume of 20 mM Thioflavin T is added to the solution to give a final 5 μM concentration of Thioflavin T. iii) The microplate is loaded with 40 μL of solution A followed by 40 μL of solution B which gives a final 20 μM Aβ (1-40) or 10 μM IAPP, 5 μM Thioflavin T, and a given concentration of test compound in 0.02M Tris/0.02M acetate/0.15M NaCl/0.005% azide, pH 7.40. The plate is sealed and loaded into the microplate fluorescence reader. Fluorescence measurement data analysis: The HTS-7000 Bio Assay Reader, Perkin Elmer, is used to perform kinetic runs of about 1 day. Readings were taken at 15 minute intervals, with one minute shaking before each read. Bandpass filters used were: excitation 430 nm, emission […].

Aβ [1] = molecular target: T3, Aβ (Homo sapiens, UniProt P05067); test: circular dichroism (CD) assay, inhibition of fibrillogenesis; assay type: biochemical; details: soluble Aβ, 37° C., 190-240 nm
T3 construct: Aβ peptide: Aβ (1-40) 95% purity (American Peptide Company, Inc, Sunnyvale, Calif. USA)
Description: (§1) Test compounds were purchased from commercial sources or synthesized and screened by thioflavin T fluorescent assay (“ThT assay”). Alternatively, one could screen test compounds by circular dichroism (“CD”), electron microscopy (“EM”), or mass spectroscopy (“MS”) assays. The MS assay gives data on the ability of compounds to bind to an amyloid protein, whereas the ThT, EM, and CD assays give data on inhibition of fibrillogenesis.
In the circular dichroism (“CD”) assay, samples were transferred to 0.1-cm path-length quartz cuvettes and CD scans were taken using a Jasco J-715 spectropolarimeter. Readings were taken at 37° C., between 190 and 240 nm, with a resolution of 0.1 nm and a bandwidth of 1 nm. […]

Aβ [2] = molecular target: T3, Aβ; test: electron microscopy (EM) assay, inhibition of fibrillogenesis; assay type: biochemical; details: soluble Aβ
Description: as §1
Similarly, in the electron microscopy (“EM”) assay, each sample was sonicated for 1 min to disrupt large clumps before testing. The sample (5-μL aliquot) was placed on freshly cleaved mica and allowed to air dry. The mica was placed in a Balzers High-vacuum, Freeze-Etch Unit (model 301), shadowed with platinum (30° angle), and coated with a carbon film. The replica was removed from the mica by flotation and transferred onto a 300-mesh copper grid. Samples were examined using a Joel 2000 FX transmission electron microscope. […]

T1 sequence (P05067 672-711 limits assumed): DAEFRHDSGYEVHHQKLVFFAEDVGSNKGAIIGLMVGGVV
T3 sequence (P05067 672-711 limits assumed): as above
T2 sequence (P05067 672-711 limits assumed): as above

Structure (SMILES) | MS Assay (Aβ40) | ThT Assay (Aβ (1-40)) | CD (Aβ [1]) | EM (Aβ [2])
N=C(N)c1ccc(OCCCCOc2ccc(C(=N)N)cc2)cc1 [Compound 5] | + | + |  | 
N=C(N)c1ccc(OCOc2ccc(C(=N)N)cc2)cc1 [Compound 9] | + | + | + | −
N=C(N)c1ccc(OCc2cccc(COc3ccc(C(=N)N)cc3)c2)cc1 [Compound 24] | + | + |  | +
c1cc(COc2ccc(C3=NCCN3)cc2)cc(COc2ccc(C3=NCCN3)cc2)c1 [Compound 25] |  | + |  | +
N=C(N)c1ccc(OCc2ccc(COc3ccc(C(=N)N)cc3)cc2)cc1 [Compound 26] |  | + |  | −
c1cc(COc2ccc(C3=NCCN3)cc2)ccc1COc1ccc(C2=NCCN2)cc1 [Compound 27] |  | pr |  | 
N=C(N)c1ccc(-c2cc3ccc(C(=N)N)cc3[nH]2)cc1 [Compound 28] |  | + | + | +
N=C(N)c1ccc(OCCC(O)COc2ccc(C(=N)N)cc2)cc1 (stereo not shown) [Compound 31] | + | + |  | −
c1cc(C2=NCCN2)ccc1OCCOCCOc1ccc(C2=NCCN2)cc1 [Compound 35] | + | + |  | −
N=C(N)CCCOc1ccc(C(=N)N)cc1 [Compound 41] | + | + |  | 
Cl.N=C(N)c1ccccc1 [Compound 46] |  | − | − | −
N=C(Nc1ccc(OCCCCCOc2ccc(NC(=N)c3ccccc3)cc2)cc1)c1ccccc1 [Compound 134] | + |  | + | −
